Data published in patent US10941152B2, “Pyrazole compounds as modulators of FSHR and uses thereof” (TOCOPHERX, INC., priority 2014, dated 2021).

What was measured:
FSHR = target: T1, FSHR (Homo sapiens, UniProt P23945); assay: EC50 of cyclic AMP production in CHO FSHR cells + EC20 FSH (Assay A); assay type: cell-based; conditions: cyclic AMP production in CHO FSHR cells + EC20 FSH (0.265 pM), HTRF
T1 construct: expressed in transfected cells; host or cells: CHO (Cho-FSHR-LUC-1-1-43)
T1 sequence (P23945 18-695): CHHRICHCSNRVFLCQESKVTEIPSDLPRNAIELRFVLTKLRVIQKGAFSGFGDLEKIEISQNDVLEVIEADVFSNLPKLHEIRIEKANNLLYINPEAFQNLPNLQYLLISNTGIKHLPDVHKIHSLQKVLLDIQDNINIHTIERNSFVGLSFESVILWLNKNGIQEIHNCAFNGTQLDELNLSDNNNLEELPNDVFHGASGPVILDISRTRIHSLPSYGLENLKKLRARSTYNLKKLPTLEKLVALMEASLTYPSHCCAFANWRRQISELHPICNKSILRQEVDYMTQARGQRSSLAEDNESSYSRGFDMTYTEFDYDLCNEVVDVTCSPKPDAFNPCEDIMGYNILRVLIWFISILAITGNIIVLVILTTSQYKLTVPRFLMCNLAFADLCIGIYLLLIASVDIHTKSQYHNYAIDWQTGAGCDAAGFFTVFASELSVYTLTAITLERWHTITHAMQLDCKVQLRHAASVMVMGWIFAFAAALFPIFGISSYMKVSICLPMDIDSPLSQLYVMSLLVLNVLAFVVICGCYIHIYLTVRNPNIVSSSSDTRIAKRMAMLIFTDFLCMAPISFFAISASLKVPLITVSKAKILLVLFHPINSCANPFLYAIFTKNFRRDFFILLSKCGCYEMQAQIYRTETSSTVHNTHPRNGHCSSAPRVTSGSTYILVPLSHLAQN
Method in brief: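 CHO cells expressing FSHR, stimulated 1 h at 37° C with compound plus EC20 FSH (0.265 pM final) and 200 μM IBMX. cAMP measured by HTRF (665/620 nm ratio) after 1 h at room temperature; effect expressed relative to maximum response of FSH standard.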

[1] = target: T2, follicle-stimulating hormone (FSH) receptor (Rattus norvegicus, UniProt P20395); assay: Rat granulosa EC50 FSH (Assay B); assay type: cell-based
T2 construct: endogenous in cells; host or cells: rat granulosa cells
T2 sequence (P20395 18-692): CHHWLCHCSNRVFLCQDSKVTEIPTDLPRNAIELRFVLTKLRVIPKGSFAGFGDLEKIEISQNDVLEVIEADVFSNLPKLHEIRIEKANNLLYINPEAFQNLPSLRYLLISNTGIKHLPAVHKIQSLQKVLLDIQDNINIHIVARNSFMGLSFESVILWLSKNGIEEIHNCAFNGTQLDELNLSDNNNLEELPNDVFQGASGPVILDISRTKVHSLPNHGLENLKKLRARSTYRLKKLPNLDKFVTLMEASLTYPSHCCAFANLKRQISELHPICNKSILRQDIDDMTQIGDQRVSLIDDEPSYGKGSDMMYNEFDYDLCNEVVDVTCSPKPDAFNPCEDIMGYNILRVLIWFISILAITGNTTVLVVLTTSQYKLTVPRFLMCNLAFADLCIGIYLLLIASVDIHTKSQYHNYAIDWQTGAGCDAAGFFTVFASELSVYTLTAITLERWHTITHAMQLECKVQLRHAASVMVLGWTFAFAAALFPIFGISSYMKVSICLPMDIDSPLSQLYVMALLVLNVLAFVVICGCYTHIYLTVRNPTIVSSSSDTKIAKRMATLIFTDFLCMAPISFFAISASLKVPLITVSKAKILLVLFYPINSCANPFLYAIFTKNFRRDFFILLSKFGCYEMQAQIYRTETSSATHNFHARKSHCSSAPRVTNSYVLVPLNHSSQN
Method: Example 25. Rat granulosa EC50 FSH (Assay B)
The assay was performed pursuant to the teaching of Yanofsky et al. (2006) Allosteric activation of the follicle-stimulating hormone (FSH) receptor by selective, nonpeptide agonists (JBC 281(19): 13226-13233, which is incorporated by reference in the disclosure of the invention).

SMILES | EC50 (FSHR) [nM] | EC50 [1] [nM]
COc1cc(Cl)cc(-n2nc(C(=O)N3CCOCC3(C)C)c3c2-c2cc(-c4cnn(CC(=O)O)c4)c(OC)cc2OC3)c1 [Compound 86, 2-(4-(1-(3-chloro-5-methoxyphenyl)-3-(3,3-dimethylmorpholine-4-carbonyl)-7-methoxy-1,4-dihydrochromeno[4,3-c]pyrazol-8-yl)-1H-pyrazol-1-yl)acetic acid] | < 10 | 101 to 500
COc1cc2c(cc1-c1cncc(S(N)(=O)=O)c1)-c1c(c(C(=O)N(C)C(C)(C)C)nn1-c1cc(Cl)cc(Cl)c1)CO2 [Compound 66, N-tert-butyl-1-(3,5-dichlorophenyl)-7-methoxy-N-methyl-8-(5-sulfamoylpyridin-3-yl)-1,4-dihydrochromeno[4,3-c]pyrazole-3-carboxamide] | < 10 | 10 to 100
COc1cc2c(cc1-c1cncc(C(N)=O)c1)-c1c(c(C(=O)N3CC[S+]([O-])CC3(C)C)nn1-c1cc(F)cc(F)c1)CO2 (stereo not drawn) [Compound 163] | < 10 | 101 to 500
COc1cc(F)cc(-n2nc(C(=O)N3CCOCC3(C)C)c3c2-c2cc(-c4cnn(CCO)c4)c(OC)cc2OC3)c1 [Compound 74, (3,3-dimethylmorpholino)(1-(3-fluoro-5-methoxyphenyl)-8-(1-(2-hydroxyethyl)-1H-pyrazol-4-yl)-7-methoxy-1,4-dihydrochromeno[4,3-c]pyrazol-3-yl)methanone] | < 10 | 10 to 100
COc1cc2c(cc1-c1cc(C(N)=O)ccc1F)-c1c(c(C(=O)N(C)C(C)(C)C)nn1-c1cc(Cl)cc(Cl)c1)CO2 [Compound 93, N-tert-butyl-8-(5-carbamoyl-2-fluorophenyl)-1-(3,5-dichlorophenyl)-7-methoxy-N-methyl-1,4-dihydrochromeno[4,3-c]pyrazole-3-carboxamide] | < 10 | 10 to 100
COCC1(CC(F)(F)F)CCCN1C(=O)c1nn(-c2ccsc2)c2c1COc1cc(OC)c(-c3ccn(C)n3)cc1-2 (stereo not drawn) [Compound 131, (7-methoxy-8-(1-methyl-1H-pyrazol-3-yl)-1-(thiophen-3-yl)-1,4-dihydrochromeno[4,3-c]pyrazol-3-yl)(2-(methoxymethyl)-2-(2,2,2-trifluoroethyl)pyrrolidin-1-yl)methanone] | 10 to 100 | 10 to 100
COc1cc2c(cc1-c1ccccn1)-c1c(c(C(=O)N3CCC(O)CC3(C)C)nn1-c1cc(Cl)cc(Cl)c1)CO2 (stereo not drawn) [Compound 10, (1-(3,5-dichlorophenyl)-7-methoxy-8-(pyridin-2-yl)-1,4-dihydrochromeno[4,3-c]pyrazol-3-yl)(4-hydroxy-2,2-dimethylpiperidin-1-yl)methanone] | < 10 | 10 to 100
COc1cc2c(cc1-c1cccc(C(N)=O)c1)-c1c(c(C(=O)N(C)C(C)(C)C)nn1-c1cc(Cl)cc(Cl)c1)CO2 [Compound 172] | < 10 | 10 to 100
COc1cc2c(cc1-c1cncc(N)c1)-c1c(c(C(=O)N(C)C(C)(C)C)nn1-c1cc(Cl)cc(Cl)c1)CO2 [Compound 20, 8-(5-aminopyridin-3-yl)-N-tert-butyl-1-(3,5-dichlorophenyl)-7-methoxy-N-methyl-1,4-dihydrochromeno[4,3-c]pyrazole-3-carboxamide] | < 10 | 101 to 500
COc1cc2c(cc1-c1ccn(C)n1)-c1c(c(C(=O)N3CCOCC3(C)C)nn1-c1cc(C)cc(Cl)c1)CO2 [Compound 31, (1-(3-chloro-5-methylphenyl)-7-methoxy-8-(1-methyl-1H-pyrazol-3-yl)-1,4-dihydrochromeno[4,3-c]pyrazol-3-yl)(3,3-dimethylmorpholino)methanone] | 10 to 100 | 101 to 500
COc1cc2c(cc1-c1nn(C)cc1C#N)-c1c(c(C(=O)N(C)C(C)(C)C)nn1-c1cc(F)cc(F)c1)CO2 [Compound 149] | < 10 | 10 to 100
COc1cc2c(cc1-c1cncc(C#N)c1)-c1c(c(C(=O)N3CCOCC3(C)C)nn1-c1cc(Cl)cc(Cl)c1)CO2 [Compound 12, 5-(1-(3,5-dichlorophenyl)-3-(3,3-dimethylmorpholine-4-carbonyl)-7-methoxy-1,4-dihydrochromeno[4,3-c]pyrazol-8-yl)nicotinonitrile] | < 10 | 10 to 100
COc1cc2c(cc1-c1cnn(CCO)c1)-c1c(c(C(=O)N(C)C(C)(C)C)nn1-c1ccsc1)CO2 [Compound 76, N-tert-butyl-8-(1-(2-hydroxyethyl)-1H-pyrazol-4-yl)-7-methoxy-N-methyl-1-(thiophen-3-yl)-1,4-dihydrochromeno[4,3-c]pyrazole-3-carboxamide] | 10 to 100 | > 500
COc1cc2c(cc1-c1cnn(CC(=O)N(C)C)c1)-c1c(c(C(=O)N(C)C(C)(C)C)nn1-c1cc(Cl)cc(Cl)c1)CO2 [Compound 90, N-tert-butyl-1-(3,5-dichlorophenyl)-8-(1-(2-(dimethylamino)-2-oxoethyl)-1H-pyrazol-4-yl)-7-methoxy-N-methyl-1,4-dihydrochromeno[4,3-c]pyrazole-3-carboxamide] | < 10 | 101 to 500
COc1cc2c(cc1-c1ccn(C)n1)-c1c(c(C(=O)N(CCO)C(C)(C)C)nn1-c1ccsc1)CO2 [Compound 121, N-tert-butyl-N-(2-hydroxyethyl)-7-methoxy-8-(1-methyl-1H-pyrazol-3-yl)-1-(thiophen-3-yl)-1,4-dihydrochromeno[4,3-c]pyrazole-3-carboxamide] | 10 to 100 | > 500
COc1cc2c(cc1-c1cc(C(N)=O)ncc1F)-c1c(c(C(=O)N3CCOCC3(C)C)nn1-c1cc(F)cc(F)c1)CO2 [Compound 72, 4-(1-(3,5-difluorophenyl)-3-(3,3-dimethylmorpholine-4-carbonyl)-7-methoxy-1,4-dihydrochromeno[4,3-c]pyrazol-8-yl)-5-fluoropicolinamide] | < 10 | 10 to 100
COc1cc2c(cc1-c1cncc(C(N)=O)c1)-c1c(c(C(=O)N(C)C(C)(C)C)nn1-c1ccsc1)CO2 [Compound 167] | < 10 | 10 to 100
COc1cc2c(cc1CC(C)C)-c1c(c(C(=O)N3CCC(=O)CC3(C)C)nn1-c1ccsc1)CO2 [Compound 125, 1-(8-isobutyl-7-methoxy-1-(thiophen-3-yl)-1,4-dihydrochromeno[4,3-c]pyrazole-3-carbonyl)-2,2-dimethylpiperidin-4-one] | < 10 | 10 to 100
COc1cc(OC)cc(-n2nc(C(=O)N(C)C(C)(C)C)c3c2-c2cc(-c4cc(C(N)=O)c[n+]([O-])c4)c(OC)cc2OC3)c1 [Compound 175] | < 10 | 10 to 100
COc1cc(OC)cc(-n2nc(C(=O)N3CCOCC3(C)C)c3c2-c2cc(-c4cncc(C)c4)c(OC)cc2OC3)c1 [Compound 43, (1-(3,5-dimethoxyphenyl)-7-methoxy-8-(5-methylpyridin-3-yl)-1,4-dihydrochromeno[4,3-c]pyrazol-3-yl)(3,3-dimethylmorpholino)methanone] | < 10 | 10 to 100
COc1cc2c(cc1-c1ccn(C)n1)-c1c(c(C(=O)N(C)C(C)(C)C)nn1-c1cc(F)cc(F)c1)CO2 [Compound 48, N-tert-butyl-1-(3,5-difluorophenyl)-7-methoxy-N-methyl-8-(1-methyl-1H-pyrazol-3-yl)-1,4-dihydrochromeno[4,3-c]pyrazole-3-carboxamide] | 10 to 100 | 101 to 500
